The text below walks through data of ChEMBL document CHEMBL1201862, “PubChem BioAssay data set” (2004).

Molecules are shown by their SMILES. Calls of active or inactive are those of the source.

For experiment [1], the target named is T1, Polyadenylate-binding protein 1 (Homo sapiens, UniProt P11940). Kind of experiment: PABP1 MLLE–PAM2 interaction inhibitors, dose response, miRNA deadenylation inhibitor project, biochemical, fluorescence polarization, Cy5-PAM2 peptide, secondary (AID 602260). As to conditions: read-out: IC50_Mean. The class given is functional.
Experiment [2] concerns the target T1, Polyadenylate-binding protein 1. Nature of the experiment: PABP1 MLLE–PAM2 binding inhibitor potency, dose response, biochemical, fluorescence polarization, FITC-PAM2 peptide (AID 602259). In kind it is functional. As to conditions: read-out: IC50_Mean. (In general: Polarisation of emitted light reports the rotation of a fluorescent probe.)
The target of experiment [3] is T2, Fatty acid synthase (Homo sapiens, UniProt P49327). Kind of experiment: FAS thioesterase domain inhibitors, dose response, biochemical, endpoint fluorescence intensity, uHTS hits (AID 624327).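 Further: fluorescence from hydrolysis of an O-methyl fluorescein acyl ester substrate by the enzyme.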 In kind it is functional.
In experiment [4] the target is T2, Fatty acid synthase. Kind of experiment: FAS thioesterase domain inhibitors, dose response, biochemical, kinetic fluorescence intensity (AID 624326).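 Further: rate of fluorescence rise from hydrolysis of a fluorogenic O-methyl fluorescein ester substrate.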 The class given is functional.
Experiment [5] in a line: inhibitors of HIV Env-driven cell fusion, dose response, cherry-pick (AID 652057). In kind it is functional, cell-based.
For a further experiment, the system named is Streptococcus. Nature of the experiment: Group A Streptococcus viability loss, dose response, counter-screen for streptokinase expression inhibitor project, luminescence, BacTiterGlo (AID 1915).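 Further: potency for reduction of bacterial viability or growth.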 The class given is functional, organism-based.
Experiment [6] concerns Streptococcus sp. 'group A'. Nature of the experiment: growth inhibition of control SK(-) GAS strain, dose response, counter-screen for streptokinase expression inhibitor project, luminescence, kanamycin, BacTiterGlo, confirmation (AID 1900). In kind it is functional, organism-based.
In another experiment the target is T3, Streptokinase A (Streptococcus pyogenes serotype M1, UniProt P10520).
T3 sequence (P10520 whole entry): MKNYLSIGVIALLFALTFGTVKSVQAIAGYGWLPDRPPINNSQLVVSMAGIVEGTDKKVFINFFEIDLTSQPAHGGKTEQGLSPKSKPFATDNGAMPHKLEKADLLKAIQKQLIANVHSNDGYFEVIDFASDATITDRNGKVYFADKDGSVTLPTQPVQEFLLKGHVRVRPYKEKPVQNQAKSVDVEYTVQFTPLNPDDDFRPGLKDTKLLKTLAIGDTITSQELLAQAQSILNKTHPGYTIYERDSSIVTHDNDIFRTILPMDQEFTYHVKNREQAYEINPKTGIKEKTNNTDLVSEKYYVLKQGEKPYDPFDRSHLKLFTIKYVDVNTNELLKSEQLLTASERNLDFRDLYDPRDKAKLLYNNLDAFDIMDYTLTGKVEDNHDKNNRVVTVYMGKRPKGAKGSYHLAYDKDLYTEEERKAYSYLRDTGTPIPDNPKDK
Nature of the experiment: S. pyogenes streptokinase expression inhibitors, potency, dose response, plasminogen activation absorbance, OD405 (AID 1914).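 Further: secreted streptokinase activity via plasminogen activation per viability signal from cell pellet.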 In kind it is functional, Streptococcus pyogenes M1 GAS.

Experiment [7] deals with Luciferin 4-monooxygenase (Photinus pyralis, UniProt P08659). Kind of experiment: firefly luciferase enzyme inhibitors, dose response, biochemical, luminescence (AID 1891).
A short description of experiment [8]: Luminescence Cell-Based Dose Confirmation HTS to Identify Inhibitors of Platelet Dense Granule Release. [Related pubchem assays: 1663 (Primary HTS), 1678 (Summary of Project)]. In kind it is functional.
A further experiment has as its target T4, Protein skinhead-1 (Caenorhabditis elegans, UniProt P34707).
T4 sequence (P34707 whole entry): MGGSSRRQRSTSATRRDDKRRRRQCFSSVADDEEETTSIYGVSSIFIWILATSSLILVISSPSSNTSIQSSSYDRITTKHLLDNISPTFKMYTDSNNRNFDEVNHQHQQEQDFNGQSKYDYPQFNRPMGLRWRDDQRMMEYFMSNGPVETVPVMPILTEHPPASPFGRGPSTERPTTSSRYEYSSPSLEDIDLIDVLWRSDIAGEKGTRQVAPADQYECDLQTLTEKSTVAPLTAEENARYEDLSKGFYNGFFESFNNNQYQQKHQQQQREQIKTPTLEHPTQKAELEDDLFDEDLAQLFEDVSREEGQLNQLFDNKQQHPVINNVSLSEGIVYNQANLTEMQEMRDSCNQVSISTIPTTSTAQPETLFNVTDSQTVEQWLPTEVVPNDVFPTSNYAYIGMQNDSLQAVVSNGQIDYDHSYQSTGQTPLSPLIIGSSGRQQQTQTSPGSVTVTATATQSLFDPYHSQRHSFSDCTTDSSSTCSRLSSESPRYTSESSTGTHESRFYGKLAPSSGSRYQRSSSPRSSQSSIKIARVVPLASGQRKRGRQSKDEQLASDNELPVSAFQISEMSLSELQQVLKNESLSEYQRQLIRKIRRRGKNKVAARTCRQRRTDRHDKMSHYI
The class given is functional.

Another experiment has as its target T5, Protein RecA (Mycobacterium tuberculosis, UniProt P9WHJ3).
T5 sequence (P9WHJ3 whole entry): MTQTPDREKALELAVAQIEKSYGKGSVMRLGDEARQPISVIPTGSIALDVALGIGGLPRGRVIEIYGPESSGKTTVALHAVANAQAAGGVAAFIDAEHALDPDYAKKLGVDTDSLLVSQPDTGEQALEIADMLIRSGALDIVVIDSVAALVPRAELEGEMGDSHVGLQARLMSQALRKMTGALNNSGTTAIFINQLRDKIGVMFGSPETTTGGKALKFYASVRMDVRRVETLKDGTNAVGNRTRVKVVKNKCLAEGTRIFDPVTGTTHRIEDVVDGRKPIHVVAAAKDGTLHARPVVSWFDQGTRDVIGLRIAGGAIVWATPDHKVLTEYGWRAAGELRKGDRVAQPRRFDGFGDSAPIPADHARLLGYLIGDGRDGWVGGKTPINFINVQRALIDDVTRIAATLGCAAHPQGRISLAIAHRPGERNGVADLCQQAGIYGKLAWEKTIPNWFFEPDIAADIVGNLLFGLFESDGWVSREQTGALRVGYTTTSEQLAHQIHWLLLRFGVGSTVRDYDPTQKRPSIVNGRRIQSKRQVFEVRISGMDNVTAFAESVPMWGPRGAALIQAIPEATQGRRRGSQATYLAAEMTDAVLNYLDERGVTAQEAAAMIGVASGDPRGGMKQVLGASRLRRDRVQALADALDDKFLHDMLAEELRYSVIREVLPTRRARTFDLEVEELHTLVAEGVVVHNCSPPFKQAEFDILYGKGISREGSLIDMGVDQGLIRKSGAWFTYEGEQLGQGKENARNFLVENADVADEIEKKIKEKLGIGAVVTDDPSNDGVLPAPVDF
Nature of the experiment: Fluorescence Cell-Free Homogeneous Dose Retest to Identify Inhibitors of RecA-Intein Splicing Activity. [Related pubchem assays (depositor defined):AID2097, AID2223, AID489010, AID492950]. In kind it is functional.

Experiment [9] has as its target T6, Replicative DNA helicase DnaB (Mycobacterium tuberculosis, UniProt P9WMR3).
T6 sequence (P9WMR3 whole entry): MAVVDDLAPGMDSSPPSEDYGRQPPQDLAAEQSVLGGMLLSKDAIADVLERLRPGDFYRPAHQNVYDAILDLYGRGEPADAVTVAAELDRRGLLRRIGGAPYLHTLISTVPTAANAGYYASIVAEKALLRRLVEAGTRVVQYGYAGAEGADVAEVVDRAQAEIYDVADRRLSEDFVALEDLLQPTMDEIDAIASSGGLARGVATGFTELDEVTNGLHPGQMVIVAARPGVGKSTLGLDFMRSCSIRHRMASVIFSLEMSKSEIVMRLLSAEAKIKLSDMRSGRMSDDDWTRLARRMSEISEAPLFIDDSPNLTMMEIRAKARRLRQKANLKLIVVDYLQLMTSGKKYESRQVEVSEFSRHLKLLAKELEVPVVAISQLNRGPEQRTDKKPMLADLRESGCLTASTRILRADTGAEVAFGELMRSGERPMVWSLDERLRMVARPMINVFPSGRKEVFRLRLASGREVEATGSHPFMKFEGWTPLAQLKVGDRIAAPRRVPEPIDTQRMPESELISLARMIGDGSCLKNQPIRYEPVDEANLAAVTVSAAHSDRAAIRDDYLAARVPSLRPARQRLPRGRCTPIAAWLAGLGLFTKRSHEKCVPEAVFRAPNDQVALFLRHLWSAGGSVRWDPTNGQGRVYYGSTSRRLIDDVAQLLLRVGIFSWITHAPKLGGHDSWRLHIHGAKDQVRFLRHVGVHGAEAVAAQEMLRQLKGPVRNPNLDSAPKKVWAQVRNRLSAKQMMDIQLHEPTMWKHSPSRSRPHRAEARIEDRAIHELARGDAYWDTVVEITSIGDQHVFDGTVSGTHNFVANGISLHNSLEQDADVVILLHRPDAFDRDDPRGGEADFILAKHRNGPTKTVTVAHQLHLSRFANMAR
Nature of the experiment: DnaB intein splicing inhibitors, dose response, biochemical, cell-free fluorescence (AID 449749). The class given is functional.

T1 sequence (P11940 whole entry): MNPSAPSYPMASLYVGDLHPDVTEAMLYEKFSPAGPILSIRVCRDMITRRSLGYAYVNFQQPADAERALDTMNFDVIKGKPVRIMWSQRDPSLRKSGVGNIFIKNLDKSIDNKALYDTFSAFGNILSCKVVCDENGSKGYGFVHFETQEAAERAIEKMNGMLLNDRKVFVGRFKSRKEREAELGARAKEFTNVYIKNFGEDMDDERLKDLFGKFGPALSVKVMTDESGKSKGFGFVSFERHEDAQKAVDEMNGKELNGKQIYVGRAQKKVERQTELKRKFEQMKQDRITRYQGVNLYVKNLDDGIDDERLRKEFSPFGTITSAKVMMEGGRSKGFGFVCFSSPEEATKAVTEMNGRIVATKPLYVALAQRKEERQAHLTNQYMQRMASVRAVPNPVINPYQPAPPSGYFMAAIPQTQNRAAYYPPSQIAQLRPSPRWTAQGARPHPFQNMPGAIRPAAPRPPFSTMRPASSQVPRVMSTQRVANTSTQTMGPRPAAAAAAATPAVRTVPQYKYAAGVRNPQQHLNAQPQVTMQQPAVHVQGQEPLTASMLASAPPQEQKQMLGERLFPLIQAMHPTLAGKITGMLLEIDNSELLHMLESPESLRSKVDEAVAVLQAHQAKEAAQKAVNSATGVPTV
T2 sequence (P49327 whole entry, the tested form may be a part): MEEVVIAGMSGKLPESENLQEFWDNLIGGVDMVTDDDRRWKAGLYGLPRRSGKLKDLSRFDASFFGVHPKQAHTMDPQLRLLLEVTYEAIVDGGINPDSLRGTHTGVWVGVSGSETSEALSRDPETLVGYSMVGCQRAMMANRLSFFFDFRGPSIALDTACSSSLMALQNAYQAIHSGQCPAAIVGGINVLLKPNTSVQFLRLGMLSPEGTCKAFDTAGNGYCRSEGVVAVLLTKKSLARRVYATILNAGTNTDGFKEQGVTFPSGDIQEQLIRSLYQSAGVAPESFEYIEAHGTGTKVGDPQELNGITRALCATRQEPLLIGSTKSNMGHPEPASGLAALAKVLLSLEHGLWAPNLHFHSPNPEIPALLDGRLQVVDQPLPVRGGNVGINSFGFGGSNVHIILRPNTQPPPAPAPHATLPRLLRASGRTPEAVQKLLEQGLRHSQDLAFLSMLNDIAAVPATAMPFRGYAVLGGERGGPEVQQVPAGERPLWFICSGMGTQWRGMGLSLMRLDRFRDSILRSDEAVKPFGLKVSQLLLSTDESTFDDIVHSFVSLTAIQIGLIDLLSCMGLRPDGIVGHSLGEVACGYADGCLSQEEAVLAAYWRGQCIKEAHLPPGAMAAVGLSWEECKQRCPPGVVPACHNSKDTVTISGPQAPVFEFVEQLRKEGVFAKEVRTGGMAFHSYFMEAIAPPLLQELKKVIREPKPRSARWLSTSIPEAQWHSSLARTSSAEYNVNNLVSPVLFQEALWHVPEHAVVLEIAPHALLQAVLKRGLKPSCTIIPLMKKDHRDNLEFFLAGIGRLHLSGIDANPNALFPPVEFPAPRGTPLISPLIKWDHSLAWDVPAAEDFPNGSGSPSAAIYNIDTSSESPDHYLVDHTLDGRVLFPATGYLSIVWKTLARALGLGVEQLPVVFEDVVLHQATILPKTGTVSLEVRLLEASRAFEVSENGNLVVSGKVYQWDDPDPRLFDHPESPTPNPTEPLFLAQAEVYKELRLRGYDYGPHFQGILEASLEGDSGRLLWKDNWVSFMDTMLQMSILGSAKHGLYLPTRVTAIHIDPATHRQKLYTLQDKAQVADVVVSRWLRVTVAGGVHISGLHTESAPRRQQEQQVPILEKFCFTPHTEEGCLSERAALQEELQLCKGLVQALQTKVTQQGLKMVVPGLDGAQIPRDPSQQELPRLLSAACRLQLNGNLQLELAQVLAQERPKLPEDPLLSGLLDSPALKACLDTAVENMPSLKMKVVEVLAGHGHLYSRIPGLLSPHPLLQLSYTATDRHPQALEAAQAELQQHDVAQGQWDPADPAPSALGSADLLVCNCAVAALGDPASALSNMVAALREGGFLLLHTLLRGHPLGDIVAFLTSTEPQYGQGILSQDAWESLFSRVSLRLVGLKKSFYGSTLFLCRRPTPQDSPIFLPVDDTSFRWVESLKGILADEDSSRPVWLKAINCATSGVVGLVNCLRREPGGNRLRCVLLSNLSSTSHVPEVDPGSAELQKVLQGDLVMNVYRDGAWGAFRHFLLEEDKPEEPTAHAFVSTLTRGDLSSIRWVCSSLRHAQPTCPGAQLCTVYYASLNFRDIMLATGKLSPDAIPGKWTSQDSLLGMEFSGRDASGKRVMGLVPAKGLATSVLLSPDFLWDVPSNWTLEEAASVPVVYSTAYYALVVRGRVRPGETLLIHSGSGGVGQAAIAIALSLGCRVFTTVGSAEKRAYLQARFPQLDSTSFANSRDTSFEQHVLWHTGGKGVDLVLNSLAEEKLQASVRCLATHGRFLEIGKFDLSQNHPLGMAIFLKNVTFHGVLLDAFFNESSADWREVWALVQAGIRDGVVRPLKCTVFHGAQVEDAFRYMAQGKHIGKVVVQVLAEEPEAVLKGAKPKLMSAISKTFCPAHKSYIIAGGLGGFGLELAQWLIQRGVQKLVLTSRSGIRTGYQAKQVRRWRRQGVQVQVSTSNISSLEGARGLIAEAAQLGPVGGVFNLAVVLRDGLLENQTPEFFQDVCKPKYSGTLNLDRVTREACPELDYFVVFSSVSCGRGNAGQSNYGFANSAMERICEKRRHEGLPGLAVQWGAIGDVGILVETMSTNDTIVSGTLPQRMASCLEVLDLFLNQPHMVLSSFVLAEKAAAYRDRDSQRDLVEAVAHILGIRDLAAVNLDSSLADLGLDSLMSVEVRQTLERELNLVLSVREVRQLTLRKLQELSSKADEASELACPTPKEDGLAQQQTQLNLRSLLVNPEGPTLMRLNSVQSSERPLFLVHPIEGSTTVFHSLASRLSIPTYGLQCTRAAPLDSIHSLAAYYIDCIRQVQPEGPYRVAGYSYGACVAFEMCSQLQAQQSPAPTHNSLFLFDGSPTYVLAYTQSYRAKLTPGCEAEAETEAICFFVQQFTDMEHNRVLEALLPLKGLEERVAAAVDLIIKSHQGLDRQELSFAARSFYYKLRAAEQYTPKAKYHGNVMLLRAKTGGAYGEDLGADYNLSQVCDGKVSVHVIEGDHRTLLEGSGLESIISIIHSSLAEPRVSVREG
Luciferin 4-monooxygenase, sequence (P08659 whole entry): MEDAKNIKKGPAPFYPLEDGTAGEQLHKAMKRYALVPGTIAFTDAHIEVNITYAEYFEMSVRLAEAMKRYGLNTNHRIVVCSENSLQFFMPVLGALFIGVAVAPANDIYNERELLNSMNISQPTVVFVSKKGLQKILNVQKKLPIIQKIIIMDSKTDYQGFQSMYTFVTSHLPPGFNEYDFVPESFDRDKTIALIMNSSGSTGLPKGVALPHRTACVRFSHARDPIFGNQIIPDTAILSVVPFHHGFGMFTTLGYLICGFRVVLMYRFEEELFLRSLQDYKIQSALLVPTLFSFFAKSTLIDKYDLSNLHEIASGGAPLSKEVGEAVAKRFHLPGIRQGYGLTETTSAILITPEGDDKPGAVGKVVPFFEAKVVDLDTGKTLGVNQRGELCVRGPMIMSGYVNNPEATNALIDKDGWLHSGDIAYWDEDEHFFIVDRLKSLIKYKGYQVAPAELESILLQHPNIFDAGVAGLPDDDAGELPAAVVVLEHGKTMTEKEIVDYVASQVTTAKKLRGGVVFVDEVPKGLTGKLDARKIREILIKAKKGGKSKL

As for `O=[N+]([O-])c1ccc(CSc2ccc(S(=O)(=O)N3CCOCC3)cn2)cc1`, the IC50 is > 66 µM (inactive) in [1], > 66 µM (inactive) in [2], 13.4 µM (active) on Fatty acid synthase [3] and 4.09 µM (active) at Fatty acid synthase [4].

Regarding `COc1cc2ncc(S(=O)(=O)c3ccccc3)c(N3CCC4(CC3)OCCO4)c2cc1OC`, the results for the IC50 on Fatty acid synthase [3] and on Fatty acid synthase [4] were 2.55 µM (active) and 1.59 µM (active), respectively.

For `COc1ccc(N2C(=O)NC3CC2(C)Oc2ccc(Br)cc23)cc1OC` (configuration not stated), the IC50 at Fatty acid synthase [3] is 4.93 µM (active); at Fatty acid synthase [4], 5.33 µM (active).

In the case of `O=C(NCCc1cccc(Cl)c1)c1ccc(Cl)c([N+](=O)[O-])c1`, the IC50 on Fatty acid synthase [3] is 9.28 µM (active); on Fatty acid synthase [4], 9.95 µM (active).

For the molecule `COc1ccc(C2(CNC(=O)c3cccc([N+](=O)[O-])c3)CCCCC2)cc1OC`, the IC50 at Fatty acid synthase [3] was 14.9 µM (active); on Fatty acid synthase [4] it was 10.2 µM (active).

With `CSc1nsc(NN)n1`, the IC50 in experiment [1] and in experiment [2] was > 66 µM (inactive) throughout.

`Cc1onc(-c2c(F)cccc2Cl)c1C(=O)NC(=S)NC1CCS(=O)(=O)C1` (configuration not stated): the IC50 in experiment [1] and in [2] was > 66 µM (inactive) throughout.

As to `O=C(CN1C(=O)S/C(=C/c2ccncc2)C1=O)N1CCOCC1`, the IC50 in experiment [1] and in experiment [2] was > 66 µM (inactive) in each case.

The term AC50 denotes the concentration at which the activity in the assay is half-maximal. As to `COc1ccc2c3c(n(C)c2c1)[C@@H](CO)N(C(=O)Nc1ccc(F)cc1)CC31CCN(Cc2cccc(F)c2)CC1`, in [5], the AC50 is < 0.26 µM (active).

By EC50 is commonly meant the concentration needed to bring the measured effect to its halfway point. As for `O=[N+]([O-])c1ccc(NCc2ccc(Cl)cc2)c2ccncc12`, the EC50 in the experiment with Streptococcus is > 150 µM (not active); in experiment [6], 32.3 µM (active); at Streptokinase A, 15.1 µM (active). The figures for the IC50 at Fatty acid synthase [3] and on Fatty acid synthase [4] were 3.17 µM (active) and 3.75 µM (active), respectively.

Consider `Cc1cc(Cl)ccc1NC(=O)CCC(=O)N/N=C/c1cc([N+](=O)[O-])ccc1O`, for which the IC50 is 12.8 µM (active) at Fatty acid synthase [3] and 8.57 µM (active) on Fatty acid synthase [4].

For the molecule `COc1ccc(C(=O)NCc2ccc3c(c2)cc(C)n3C)cc1`, the IC50 in experiment [1] was > 66 µM (inactive); in experiment [2] it was > 66 µM (inactive); on Protein skinhead-1, > 100 µM (inactive). Moreover, the EC50 in experiment [7] and in experiment [8] was > 112 µM (not active) in each case.

Consider `N#Cc1cc(-c2ccccc2)nc(Oc2ccccc2)n1`, for which the EC50 at Protein RecA is 17.7 µM (active). Besides, the IC50 at Fatty acid synthase [3] is 12.2 µM (active); at Fatty acid synthase [4] it was 12.9 µM (active). The AC50 in experiment [9] was 6.79 µM (active).

For `COC(=O)CSc1[nH]c2ccccc2c1[N+](=O)[O-]`, the IC50 in [1] and in experiment [2] was > 66 µM (inactive) throughout.

Take `CC(NC(=O)COC(=O)c1cc([N+](=O)[O-])ccc1N1CCOCC1)c1ccccc1` (configuration not stated): the IC50 at Fatty acid synthase [3] was 4.64 µM (active); on Fatty acid synthase [4], 2.93 µM (active).

With `CN(C)S(=O)(=O)c1cccc(NC(=O)c2cc([N+](=O)[O-])ccc2N2CCCCC2)c1`, the IC50 at Fatty acid synthase [3] is 13.1 µM (active); on Fatty acid synthase [4], 12.2 µM (active).

Regarding `C[C@H]1CN([C@@H](C)CO)C(=O)c2cccc(NS(=O)(=O)c3ccc(Cl)cc3)c2O[C@@H]1CN(C)Cc1ccc(C(F)(F)F)cc1`, the AC50 in experiment [5] was 29 µM (active).
